# Laboratory results as given in US6620419B1, “Cosmetic or dermopharmaceutical use of peptides for healing, hydrating and improving skin appearance during natural or induced ageing (heliodermia, pollution)” (Sederma, priority 1998, dated 2003).
# Non-standard residues stand in square brackets, D forms with d. No end group written: not given here. *: point of attachment. Palmitoyl = CCCCCCCCCCCCCCCC(=O)*; Sar = CNCC(=O)O
# Columns and labels:
# Assay type in all cases: cell-based
# explants of human skin [1] = test: Increase in synthesis of collagen in vitro: 3H-proline incorporation in human skin explants; details: for increase of incorporation of 3H-proline (synthesis of collagen) relative to blank tests: 72 hours, human skin explants
# Procedure: The method chosen is a modification of that described by Augustin C. et al. (Skin Pharmacol. (1997); 10:63-70) in that we have used explants of human skin instead of human pulmonary fibroblasts, so as to render our results directly usable in cosmetology. These explants, from abdominal or mammary plastic surgery, are incubated for 72 hours in the presence ^3H-proline, with peptide N-Palmitoyl-[…], to three final concentrations in the culture medium (2.10^-4%, 4.10^-4% and 8.10^-4%; namely, 2, 4 and 8 ppm). The explants are then washed, the […] of each explant are separated, homogenized and lysed. The measurement of the incorporation of ^3H-proline is thus carried out in each lysat. Tests were done in triplicate. In parallel, negative controls are carried out under the same conditions but in the absence of the peptide. Positive controls, themselves, are carried out by replacing the peptide tested by vitamin C.
# explants of human skin [2] = test: Increase of the synthesis of glycosaminoglycans in vitro: 3H-glucosamine incorporation in human skin explants; details: for increase of incorporation of 3H-glucosamine (synthesis of GAGs) relative to blank experiments: 72 hours, human skin explants
# Procedure: The method chosen is a modification of that described by Augustin C. et al. (Skin Pharmacol. (1997); 10:63-70) in that we have used explants of human skin instead of human pulmonary fibroblasts, so as to render our results directly usable in cosmetology.
# These explants, from abdominal or mammary plastic surgery, are incubated for 72 hours in the presence ^3H-proline, with peptide N-Palmitoyl-Sarcosine-Thr-Thr-Lys-Ser, to three final concentrations in the culture medium (2.10^−4%, 4.10^−4% and 8.10^−4%; namely, 2, 4 and 8 ppm). The explants are then washed, the derma and epiderma of each explant are separated, homogenized and lysed. The measurement of the incorporation of ^3H-proline is thus carried out in each lysat. Tests were done in triplicate.
# In parallel, negative controls are carried out under the same conditions but in the absence of the peptide. Positive controls, themselves, are carried out by replacing the peptide tested by vitamin C.
# The same protocol as in Example No. 3 is used, except that, on the one hand, the incubation is carried out in the presence of ^3H-glucosamine instead of ^3H-proline and vitamin A acid is used as reference product in place of vitamin C.
# human fibroblasts = test: Cutaneous toning activity in vitro: stimulation of protein synthesis, colorimetry (Biuret reaction); details: 24 hours, per 1000 cells
# Procedure: For 24 hours, human fibroblasts from the same cellular culture are placed in the presence of the standard culture medium, supplemented or not for controls, with given concentrations of peptide (2, 4 and 8 ppm).
# The stimulation of the synthesis of proteins is evaluated by colorimetry (so-called Biuret reaction).
# To standardize the results, the quantity of proteins measured is expressed for 1000 cells present in the test.
compound,measurement,setting,value
"O=C1O[C@H]([C@@H](O)CO)C(O)=C1O [ascorbic acid, reference compound]",increase of collagen synthesis,"explants of human skin [1]; reference product at 0.5mM, same conditions",61.4 (±5) %
"CC1=C(/C=C/C(C)=C/C=C/C(C)=C/C(=O)O)C(C)(C)CCC1 [vitamin A acid, reference compound]",increase of synthesis of GAGs,"explants of human skin [2]; reference product at 100 nM, same conditions",45.3 (±2) %
KTTKSA,increase of incorporation of 3H-glucosamine (synthesis of GAGs) relative to blank experiments,explants of human skin [2]; 2 ppm peptide,24.5 (±3) %
same,increase of incorporation of 3H-glucosamine (synthesis of GAGs) relative to blank experiments,explants of human skin [2]; 4 ppm peptide,48.8 (±3) %
same,increase of incorporation of 3H-glucosamine (synthesis of GAGs) relative to blank experiments,explants of human skin [2]; 8 ppm peptide,67.9 (±5) %
N-Palmitoyl-Lys-Thr-Thr-Lys-Ser (Palmitoyl-KTTKS) [N-palmytoyl-Lys-Thr-Thr-Lys-Ser],increase in the concentration of proteins relative to control experiments,human fibroblasts; 2 ppm peptide,14.7 (±1.0) %
same,increase in the concentration of proteins relative to control experiments,human fibroblasts; 4 ppm peptide,21.0(±2.4) %
same,increase in the concentration of proteins relative to control experiments,human fibroblasts; 8 ppm peptide,44.8(±1.0) %
N-Palmitoyl-Sarcosine-Thr-Thr-Lys-Ser (Palmitoyl-[Sar]TTKS),increase of incorporation of 3H-proline (synthesis of collagen) relative to blank tests,explants of human skin [1]; 2 ppm peptide,30.2 (±2) %
same,increase of incorporation of 3H-proline (synthesis of collagen) relative to blank tests,explants of human skin [1]; 4 ppm peptide,54.7 (±5) %
same,increase of incorporation of 3H-proline (synthesis of collagen) relative to blank tests,explants of human skin [1]; 8 ppm peptide,90.9 (±5) %
